Test results reported in PubChem BioAssay AID1918944 (Molecular Pharmacology Branch, DTP, NCI, 2023).

Test system: 786-0 complex spheroid viability
Test: Anticancer human tumor 786-0 cell line growth inhibition;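 further: spheroids exposed to agents for seven days before readout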
Settings: for IC50: curve of first compound; for viability, T/C: stronger effect = lower value
Procedure, shortened: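 Complex spheroids of tumor cells with HUVEC and human MSCs, exposed to iadademstat combined with other agents. Each agent tested in half-log steps from near clinical Cmax (else 10 microM top), DMSO ≤0.25%.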

Compound: NS(=O)(=O)OCC1CC(n2ccc3c(NC4CCc5ccccc54)ncnc32)CC1O (stereo not given) + NC1CCC(NC2CC2c2ccccc2)CC1
- IC50 (second compound 0.1 µM): 125 nM
- IC50 (second compound 0.316 µM): 139 nM
- IC50 (second compound 1 µM): 153 nM
- IC50 (second compound 3.16 µM): 133 nM
- IC50 (second compound 10 µM): 104 nM
- viability, T/C (second compound 0.1 µM, first compound 0.00949 µM): 111%
- viability, T/C (second compound 0.1 µM, first compound 0.03 µM): 86.7%
- viability, T/C (second compound 0.1 µM, first compound 0.0949 µM): 65.6%
- viability, T/C (second compound 0.1 µM, first compound 0.3 µM): 13.4%
- viability, T/C (second compound 0.1 µM, first compound 0.949 µM): 3.43%
- viability, T/C (second compound 0.1 µM, first compound 3 µM): 5.07%
- viability, T/C (second compound 0.316 µM, first compound 0.00949 µM): 115%
- viability, T/C (second compound 0.316 µM, first compound 0.03 µM): 87.3%
- viability, T/C (second compound 0.316 µM, first compound 0.0949 µM): 71.4%
- viability, T/C (second compound 0.316 µM, first compound 0.3 µM): 15.2%
- viability, T/C (second compound 0.316 µM, first compound 0.949 µM): 3.67%
- viability, T/C (second compound 0.316 µM, first compound 3 µM): 5.22%
- viability, T/C (second compound 1 µM, first compound 0.00949 µM): 113%
- viability, T/C (second compound 1 µM, first compound 0.03 µM): 94.6%
- viability, T/C (second compound 1 µM, first compound 0.0949 µM): 74.2%
- viability, T/C (second compound 1 µM, first compound 0.3 µM): 17.9%
- viability, T/C (second compound 1 µM, first compound 0.949 µM): 3.16%
- viability, T/C (second compound 1 µM, first compound 3 µM): 4.86%
- viability, T/C (second compound 3.16 µM, first compound 0.00949 µM): 101%
- viability, T/C (second compound 3.16 µM, first compound 0.03 µM): 78.9%
- viability, T/C (second compound 3.16 µM, first compound 0.0949 µM): 67.3%
- viability, T/C (second compound 3.16 µM, first compound 0.3 µM): 15.5%
- viability, T/C (second compound 3.16 µM, first compound 0.949 µM): 3.16%
- viability, T/C (second compound 3.16 µM, first compound 3 µM): 3.27%
- viability, T/C (second compound 10 µM, first compound 0.00949 µM): 73.6%
- viability, T/C (second compound 10 µM, first compound 0.03 µM): 58.5%
- viability, T/C (second compound 10 µM, first compound 0.0949 µM): 54.6%
- viability, T/C (second compound 10 µM, first compound 0.3 µM): 15.5%
- viability, T/C (second compound 10 µM, first compound 0.949 µM): 1.53%
- viability, T/C (second compound 10 µM, first compound 3 µM): 1.72%
